We go through eleven compounds from US20260043057A1, “ENZYMATIC SYNTHESIS OF MYCOSPORINE-LIKE AMINO ACIDS” (University of Florida Research Foundation, Incorporated, priority 2022, published 2026).

Series [1] in a line: Maximal UV absorbance of MAAs by HPLC with PDA detector. The series is classed as physicochemical. The note with it: compound produced in engineered E. coli, methanolic extract of cell pellets. As to the method: HPLC and LC-MS Analysis. Samples were analyzed on a Shimadzu Prominence UHPLC system (Kyoto, Japan) coupled with a PDA detector. The compounds were separated on a Phenomenex Luna C8 column (4.6×250 mm, 5 μm) using the following HPLC program: 2% B for 15 min, 2-90% B gradient in 2 min, 90% B for 2 min, 90-2% in 2 min, and re-equilibration in 2% B for 6 min. The A phase was 0.1 M triethylammonium acetate pH 7.0 and the B phase was methanol. The flow rate was set at 0.5 mL/min. In the quantitative analysis of relative activity of MysD with different amino acid substrates, water containing 0.1% formic acid was used as phase A to fully separate MG with MG-Ala. LC-HRMS and HRMS/MS experiments were conducted on Thermo Scientific™ Q Exactive Focus mass spectrometer with Dionex™ Ultimate™ RSLC 3000 uHPLC system, equipped with H-ESI II probe on Ion Max API Source. Methanol (B)/Water (A) containing 0.1% formic acid were used as mobile phases, and the same LC program was used as in the HPLC analysis. The eluents from the first 3 min were diverted to waste by a diverting valve. MS1 signals were acquired under the Full MS positive ion mode covering a mass range of m/z 150-2000, with resolution at 35,000 and AGC target at 1e6. Fragmentation was obtained with the Parallel Reaction Monitoring (PRM) mode using an inclusion list of calculated parental ions. The AGC target was set at 5e4 for MS2. Precursor ions were selected in the quadrapole typically with an isolation width of 3.0 m/z and fragmented in the HCD cell at a collision energy (CE) of 30. For some ions, the isolation width was 2.0 m/z and step-wise CE of 15, 20, and 25 were used.
HPLC and LC-HRMS analysis. Samples were analyzed on a Shimadzu Prominence UHPLC system (Kyoto, Japan) coupled with a PDA detector. Unless stated elsewhere, the following HPLC procedure was performed. The compounds were separated on a Phenomenex Luna C8 column (4.6×250 mm, 5 μm) using the following HPLC program: 2% B for 15 min, 2-90% B gradient in 2 min, 90% B in 2 min, 90-2% in 2 min, and re-equilibration in 2% B for 6 min. The A phase was water with 0.1 M triethylamine acetate (TEAA) at pH 7 and the B phase was methanol. The flow rate was set at 0.5 mL/min. LC-HRMS and HRMS/MS experiments were conducted on a Thermo Scientific Q Exactive Focus mass spectrometer with a Dionex Ultimate RSLC 3000 uHPLC system, equipped with the H-ESI II probe on an Ion Max API Source. Methanol (B)/water (A) containing 0.1% formic acid were used as mobile phases. The eluents from the first 3 min were diverted to waste by a diverting valve. MS1 signals were acquired under the Full MS positive ion mode, covering a mass range of m/z 150-2000, with resolution at 35 000 and AGC target at 1×10^6.

The test system of series [2] is MysD. The experiment in a line: MysD reaction with MG and amino acid substrates (substrate preference). The series is classed as biochemical, Nostoc linkia NIES-25. The note with it: for consumption level of MG in the MysD reaction relative to that with L-Thr (set as 100%): L-Thr and L-Ser 8 min, other amino acids 30 min, from produced disubstituted MAAs; for consumption of MG in the MysD reaction: optimal conditions, after 3 h. The protocol: The current and previous heterologous expression studies supported the function of MysD in the biosynthesis of disubstituted MAAs (FIG. 3).^29,35 To further characterize its catalytic properties, recombinant His6-tagged MysD of N. linkia NIES-25 was prepared from E. coli after a single affinity purification (FIG. 21). The enzyme reaction was performed with MysD (0.5 μM), MG (50 μM), and L-Thr (1 mM) in the presence of ATP (1 mM) and Mg^2+ (10 mM) at room temperature for 2 h. […] No product was formed in the control reactions without enzyme or ATP (FIG. 5A). The requirement of ATP for the MysD reaction supports its prediction as the D-Ala-D-Ala ligase-like enzyme of the ATP grasp superfamily.^29 The optimal temperature and pH of its reaction were determined at 37° C. and pH=8.5 (FIG. 22). Under these optimal reaction conditions, all 20 natural amino acids were screened (5 mM) along with MG (50 μM) in the MysD reaction. […] LC-HRMS and MS/MS analysis indicated the formation of their corresponding disubstituted MAAs, MG-Ala, MG-Arg (observed [M+H]^+: 402.1977; calculated [M+H]^+: 402.1983), MG-Cys (observed [M+H]^+: 349.1059; calculated [M+H]^+: 349.1064), mycosporine-2-Gly (observed [M+H]^+: 303.1182; calculated [M+H]^+: 303.1187), shinorine, and porphyra-334 (FIGS. 24, 25, and 26). […] Nonetheless, the result of this biochemical study well agreed with the production of porphyra-334 along with small amounts of shinorine and MG-Ala in the above heterologous expression study (FIG. 3C). To further understand MysD's substrate preference, the enzyme concentration was lowered to 0.25 μM. […] The consumed MG level in this reaction was set as 100% to normalize its level in the five other reactions, which was determined from the concentrations of produced disubstituted MAAs in the reactions (FIG. 5C). […] Together, the results of these biochemical studies highlight the broad substrate scope of MysD and its strong preference toward L-Thr in the MAA biosynthesis.
MysD Reaction. MG was purified from extracts of E. coli expressing MysAB2C by HPLC and used as the substrate for the MysD reactions. The quality of MG was calculated based on its reported extinction coefficient (28,100 M^−1cm^−1). The initial MysD reactions included MG (50 μM), L-Thr (1 mM), Mg^2+ (10 mM), and ATP (1 mM) in 100 mM Tris-Cl, pH 7.5. The reactions were initiated by adding MysD (0.5 μM) and then incubated at room temperature for 2 h. The control reactions omitted MysD or ATP. All reactions were quenched by heat inactivation at 95° C. for 10 min. After centrifugation at 20,000×g for 15 min, the clear supernatants were collected for HPLC and LC-HRMS analysis. To determine the optimal reaction conditions, the MysD reaction was performed in 100 mM buffer with a pH of 6.5 to 11 at 16 to 60° C. for 6 min. To explore the substrate scope of MysD, all 20 natural amino acids (5 mM) were screened in the above reaction mixtures under the optimal conditions for 3 h. The reactions were terminated and then analyzed in the HPLC and/or LC-MS analysis. To determine the relative activity of six identified amino acids as MysD's substrates, a two-step strategy was used. First, the reactions were performed with 0.25 μM MysD for 8 min, which led to no more than 50% consumption of MG into porphyra-334 with the best substrate L-Thr and into shinorine with L-Ser. For the other four amino acids, the levels of their corresponding disubstituted MAAs were determined after the reaction time was elongated to 30 min. All reactions were performed in at least two independent replicates.

The conditions of series [3]: reported value used to quantify MG; cited from earlier work.
For series [4], the system named is MysH. As to the kind of experiment: MysH reaction steady-state kinetics with porphyra-334. Format: biochemical, Nostoc linckia NIES-25. The note with it: 20 to 1000 uM porphyra-334, 0.5 uM MysH, room temperature, 30 min, pH 7.5. The protocol:
To further characterize the catalytic properties of MysH, the recombinant MysH of Nostoc linckia NIES-25 was prepared with a C-terminal His6-tag in E. coli after a single Ni-NTA affinity purification (FIG. 33A). The MysH reaction contained 50 mM Tris-Cl at pH 7.5, 0.5 uM MysH, 50 uM porphyra-334, 1 mM 2-oxoglutarate (2OG), 1 mM Fe(NH4)2(SO4)2, 10 mM ascorbate, and the reaction was performed at room temperature overnight. MysH successfully converted porphyra-334 into palythine-Thr in the HPLC analysis, while the complete conversion was not achieved with a higher enzyme concentration or a longer reaction time. […] To improve the reaction conversion, different concentrations of 2OG, Fe(NH4)2(SO4)2, ascorbate, and shaking speed were tested, but no significant improvement was observed. On the other hand, the inclusion of catalase led to the full conversion of porphyra-334 by MysH (FIG. 33B). The Fe(III)-O—O· species is likely one key intermediate in the MysH reaction. Hydrogen peroxide may be released via […] of Fe(III)-O—O· and inhibit the enzyme reaction.
The optimal MysH reaction conditions were determined to be 50 mM HEPES, pH 7.5, 0.5 uM MysH, 1 mM α-KG, 1 mM ascorbate, 10 uM Fe(NH4)2(SO4)2, and 8 μg/mL catalase. Steady-state kinetic studies were performed with 20 to 1000 uM porphyra-334, and the reactions were carried out at room temperature for 30 min. The reactions followed Michaelis-Menten kinetics (FIG. 34).

In series [1], `COC1=C(O)CC(O)(CO)CC1=O` (centres unmarked) [4-DG, 4-deoxygadusol] came in with a maximal absorbance of 294 nm.

For `C[C@H](N)C(=O)O` [L-Ala], the “consumption level of MG in the MysD reaction relative to that with L-Thr (set as 100%)” value in series [2] (0.25 μM MysD) is 0.4%.

On to `N[C@@H](CS)C(=O)O` [L-Cys], for which the “consumption level of MG in the MysD reaction relative to that with L-Thr (set as 100%)” value in series [2] (0.25 μM MysD) came out at 0.9%.

As to `N[C@@H](CO)C(=O)O` [L-Ser], the “consumption level of MG in the MysD reaction relative to that with L-Thr (set as 100%)” value in series [2] (0.25 μM MysD) is reported as “about 12.7%”. In series [2] (5 mM amino acid, 50 μM MG), the “consumption of MG in the MysD reaction” value was “complete consumption of MG”.

For `C[C@@H](O)[C@H](N)C(=O)O` [L-Thr], in series [2] (0.25 μM MysD, 50 μM MG, 5 mM amino acid, 8 min, optimal conditions (37° C., pH 8.5)), the “MG converted into porphyra-334” value is “about 40%”. For the same compound, the “consumption of MG in the MysD reaction” value in series [2] (5 mM amino acid, 50 μM MG) is given as “complete consumption of MG”.

As for `COC1=C(NCC(=O)O)C[C@@](O)(CO)CC1=O` [MG, mycosporine-glycine], the maximal absorbance in series [1] stood at 310 nm. Moreover, the extinction coefficient in series [3] is 28,100 M^−1cm^−1.

On to `COC1=C(NCC(=O)O)CC(O)(CO)C/C1=N\C(C)C(=O)O` (centres unmarked) [MG-Ala, mycosporine-glycine-alanine], for which the maximal absorbance entry in series [1] is recorded as “around 334 nm”.

Consider `COC1=C(N)CC(O)(CO)CC1=NC(CO)C(=O)O` (centres unmarked) [Palythine-Ser, palythine-Ser], for which the maximal absorbance in series [1] came to 320 nm.

In turn, `COC1=C(N)C[C@@](O)(CO)C/C1=N\[C@H](C(=O)O)C(C)O` (some centres unmarked) [palythine-Thr] had a maximal absorbance in series [1] of 320 nm.

For `COC1=C(NCC(=O)O)C[C@@](O)(CO)CC1=N[C@H](C(=O)O)[C@@H](C)O` [porphyra-334], in series [1], the maximal absorbance result is “around 334 nm”. Also, in series [4], the Km (as a rule, the substrate concentration at which the rate is half of its maximum) was found to be 385 µM; the Vmax (in general, the top rate of the reaction or transport when substrate is in excess) stood at 0.62 µM/min; the kcat (usually the number of substrate molecules converted per active site and unit of time at saturation) came out at 0.0207 s⁻¹.

As for mycosporine-amine [M-NH2], the maximal absorbance in series [1] is recorded as 298 nm.
